This is an account of results in ChEMBL document CHEMBL2203214, “Polyether ionophores-promising bioactive molecules for cancer therapy” (Bioorg Med Chem Lett, 2012).

Molecules are shown by their SMILES. pEC50, pIC50: −log10 of the molar value. ≈ marks a conversion by molar mass, not a printed value.

Series [1] is described as follows: Antiproliferative activity against human VCaP cells. Format: functional, cell-based.
The test system of series [2] is PC-3. The series can be described thus: Antiproliferative activity against human PC3 cells after 48 hrs. To be noted: PC-3, 48 h. In kind it is functional, cell-based.
Series [3] in a line: Induction of apoptosis in malignant lymphocyte after 48 hrs. Format: functional.
Series [4] is described as follows: Antiproliferative activity against human SCC cells assessed as non-viable cell level. Format: functional.
A short description of series [5]: Inhibition of vinblastine binding to human KB-C4 cells. In kind it is functional, cell-based.
Series [6] can be described thus: Cell cycle arrest in human SCC cells assessed as accumulation at G1/G0 phase after 24 hrs relative to control. In kind it is functional, cell-based.
Series [7] concerns MDR. The series can be described thus: Inhibition of MDR in human KB-C4 cells assessed as increase of vinblastine accumulation after 1 hr relative to control. In kind it is cell-based.
Series [8] relates to MDR. The series can be described thus: Inhibition of MDR in human KB-C4 cells assessed as increase of vinblastine accumulation preincubated for 30 mins before vinblastine addition measured after drug washout relative to control. Format: cell-based.
Series [9] in a line: Toxicity in subchronic oral dosed rat after 3 months. Format: organism-based. The conditions noted are these: in vivo.
Series [10] can be described thus: Toxicity in chronic oral dosed rat after 2 years. In kind it is organism-based. The conditions noted are these: in vivo.
Series [11] in a line: Antiproliferative activity against human NCI-H929 cells assessed as growth inhibition at 0.5 uM. The conditions noted are these: read-out: GI. In kind it is functional.
The test system of series [12] is SNU-C1. The series can be described thus: Antiproliferative activity against human SNU-C1 cells assessed as growth inhibition at 0.5 uM. In kind it is functional. The conditions noted are these: read-out: GI.
Series [13] is described as follows: Toxicity in chronic oral dosed mouse after 2 years. Format: organism-based. The conditions noted are these: in vivo.
Series [14] can be described thus: Toxicity in subchronic oral dosed dog after 3 months. Format: organism-based, Canis lupus familiaris. To be noted: in vivo.
A short description of series [15]: Toxicity in […] oral dosed dog after 1 year. Format: organism-based, Canis lupus familiaris. To be noted: in vivo.
Series [16] in a line: Potentiation of colchicine-induced cytotoxicity in human KB-C4 cells at 1 ug/mL relative to control. Format: functional.

With `CC[C@@H](C(=O)[C@@H](C)[C@@H](O)[C@H](C)[C@@H]1O[C@@H]([C@@H](CC)C(=O)O)CC[C@@H]1C)[C@H]1O[C@]2(C=C[C@@H](O)[C@]3(CC[C@@](C)([C@H]4CC[C@](O)(CC)[C@H](C)O4)O3)O2)[C@H](C)C[C@@H]1C` [SALINOMYCIN], the pEC50 (commonly the negative decadic logarithm of the EC50, by convention in mol/L) was 6.42 in series [1] and under 6.00 in series [2].
On to `C[C@H](CCC(=O)O)C[C@H](C)C[C@H](C)C(=O)/C=C(\O)[C@H](C)C[C@H](C)C/C=C/[C@@H](C)[C@@H](O)[C@@H](C)[C@@H](O)C[C@@H]1CC[C@@](C)([C@H]2CC[C@@](C)([C@@H](C)O)O2)O1` [IONOMYCIN], for which the pIC50 (as a rule, −log10 of the IC50, conventionally taken in molar units) in series [3] was 6.64.
For the molecule `CCC[C@H](O)[C@@]1(CC)C[C@@H](C)[C@](O)([C@]2(C)C[C@H](C)[C@@H]([C@@H](CC)C(=O)[C@@H](C)[C@@H](O)[C@H](C)[C@H]3O[C@@](O)([C@H](CC)C(=O)O)[C@@H](C)[C@H](O)[C@H]3CC)O2)O1` [INOSTAMYCIN], in [4], the Activity was under 1%. The IC50 (commonly the concentration that gives 50% inhibition) in series [5] stood at 0.94 µg/mL (≈ 1.34 µM). The values for the fold change (FC) in series [6], in series [7] and in series [8] were 1.2, 4 and 3, respectively.
For the molecule `CC[C@@]1([C@@H]2O[C@@H]([C@H]3O[C@@](O)(CO)[C@H](C)C[C@@H]3C)C[C@@H]2C)CC[C@H]([C@]2(C)CC[C@]3(C[C@H](O)[C@@H](C)[C@@H]([C@@H](C)[C@@H](OC)[C@H](C)C(=O)O)O3)O2)O1` [MONENSIN], the NOAEL – broadly, the highest tested level that showed no adverse finding – at 3 months in [9] was determined as 2 mg/kg; in [14], 5 mg/kg/day. Moreover, the values for the NOAEL at 2 years in [10] and in series [13] were 1.4 mg/kg/day and 1.3 mg/kg/day, respectively. The inhibition of growth at 0.5 µM in series [11] and in series [12] was 50% throughout. Further, the NOAEL at 1 year in series [15] turned out to be 1.25 mg/kg/day.
As to `CCC(=O)O[C@H]([C@H](C)[C@H]1O[C@@]2(CC[C@@](C)([C@H]3CC[C@@](C)([C@@H]4O[C@@H]([C@H]5O[C@@](O)(CO)[C@H](C)C[C@@H]5C)C[C@@H]4C)O3)O2)C[C@H](O)[C@H]1C)[C@H](C)C(=O)O` [LAIDLOMYCIN], the “fold change (FC)” value in series [16] is 700.
